Test results as given in ChEMBL document CHEMBL1201862, “PubChem BioAssay data set” (2004).
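Cells were grown in 96-well plates and exposed to each compound for 48 hours at five concentrations; endpoints were interpolated linearly between bracketing concentrations, or set to the highest concentration if not reached. GI50 marks 50% less growth.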 Active and inactive are the calls of the source. Cut-off read from the data, not from the text of the source: active = GI50 up to about 1.1 µM and inactive = higher.

How the values were obtained:
Experiment in all cases: inhibition of tumour cell growth, NCI panel, 48 h
[1] = test system: U-251
[2] = test system: Malme-3M
[3] = test system: MDA-N
[4] = test system: A549
[5] = test system: SNB-75
[6] = test system: EKVX
[7] = test system: OVCAR-8
[8] = test system: SN12C
[9] = test system: HCC 2998
[10] = test system: NCI-H522
[11] = test system: CAKI-1
[12] = test system: NCI-H460
[13] = test system: MDA-MB-435
[14] = test system: SK-MEL-2
[15] = test system: T47D
[16] = test system: OVCAR-5
[17] = test system: SF-539
[18] = test system: HL-60
[19] = test system: CCRF-CEM

Structure (SMILES)	GI50 [1]	GI50 [2]	GI50 [3]	GI50 [4]	GI50 [5]	GI50 [6]	GI50 [7]	GI50 [8]	GI50 [9]	GI50 [10]	GI50 [11]	GI50 [12]	GI50 [13]	GI50 [14]	GI50 [15]	GI50 [16]	GI50 [17]	GI50 [18]	GI50 [19]
COc1c(-c2nc3ccc(N4CCN(C)CC4)nc3[nH]2)cc(OC)c2[nH]c(COC(C)=O)nc12	13.8 µM (inactive)	28.1 µM (inactive)	24.7 µM (inactive)	39.5 µM (inactive)	24.4 µM (inactive)	54.2 µM (inactive)	50.4 µM (inactive)	20.4 µM (inactive)	15.2 µM (inactive)	37.1 µM (inactive)	> 100 µM (inactive)	31.6 µM (inactive)	26.5 µM (inactive)	19.5 µM (inactive)	22.5 µM (inactive)	55.7 µM (inactive)	14.9 µM (inactive)	–	–
N#CCCC(CCC#N)(CCC#N)NO	> 100 µM (inactive)	> 100 µM (inactive)	> 100 µM (inactive)	> 100 µM (inactive)	73.8 µM (inactive)	> 100 µM (inactive)	> 100 µM (inactive)	> 100 µM (inactive)	–	0.013 µM (active)	> 100 µM (inactive)	> 100 µM (inactive)	> 100 µM (inactive)	> 100 µM (inactive)	> 100 µM (inactive)	> 100 µM (inactive)	> 100 µM (inactive)	> 100 µM (inactive)	–
Cc1cnccc1/N=N/c1ccc(N(C)C)cc1	21.3 µM (inactive)	35.7 µM (inactive)	8.32 µM (inactive)	30.7 µM (inactive)	14.5 µM (inactive)	9.55 µM (inactive)	22.1 µM (inactive)	21.9 µM (inactive)	13.5 µM (inactive)	–	25.9 µM (inactive)	25.7 µM (inactive)	7.6 µM (inactive)	–	48.6 µM (inactive)	28 µM (inactive)	19.6 µM (inactive)	47.5 µM (inactive)	37 µM (inactive)
CCSc1[nH]c(NC(=S)NC(=O)c2ccccc2Cl)c(C(N)=O)c1C(N)=O	–	> 10 µM (inactive)	> 10 µM (inactive)	> 10 µM (inactive)	> 10 µM (inactive)	> 10 µM (inactive)	> 10 µM (inactive)	> 10 µM (inactive)	> 10 µM (inactive)	–	> 10 µM (inactive)	–	> 10 µM (inactive)	–	> 10 µM (inactive)	–	–	> 10 µM (inactive)	> 10 µM (inactive)
CC1(C)Oc2ccc3c(=O)c4ccccc4oc3c2C1C(=O)O (centres undefined)	> 100 µM (inactive)	> 100 µM (inactive)	> 100 µM (inactive)	> 100 µM (inactive)	–	> 100 µM (inactive)	> 100 µM (inactive)	> 100 µM (inactive)	> 100 µM (inactive)	> 100 µM (inactive)	> 100 µM (inactive)	–	> 100 µM (inactive)	> 100 µM (inactive)	> 100 µM (inactive)	> 100 µM (inactive)	> 100 µM (inactive)	–	> 100 µM (inactive)
CC(=O)Oc1ccc2c(c1)oc1c3ccc(OC(C)=O)cc3n(C)c(=O)c21	55 µM (inactive)	6.47 µM (inactive)	32 µM (inactive)	35.1 µM (inactive)	1.14 µM (inactive)	13.2 µM (inactive)	22.5 µM (inactive)	27.2 µM (inactive)	17.2 µM (inactive)	–	–	36.3 µM (inactive)	37.8 µM (inactive)	–	34.8 µM (inactive)	51.9 µM (inactive)	27.1 µM (inactive)	–	18.3 µM (inactive)
CC(=O)OC/C=C/[C@H](O[Si](C)(C)C(C)(C)C)[C@@H](O)/C=C/COC(C)=O	> 100 µM (inactive)	> 100 µM (inactive)	> 100 µM (inactive)	> 100 µM (inactive)	5.45 µM (inactive)	> 100 µM (inactive)	> 100 µM (inactive)	> 100 µM (inactive)	> 100 µM (inactive)	> 100 µM (inactive)	> 100 µM (inactive)	> 100 µM (inactive)	> 100 µM (inactive)	> 100 µM (inactive)	> 100 µM (inactive)	> 100 µM (inactive)	> 100 µM (inactive)	–	26 µM (inactive)
COC(=O)C1=C(O)c2ccc(Cl)cc2S(=O)(=O)N1C	81.3 µM (inactive)	77.6 µM (inactive)	> 100 µM (inactive)	44.4 µM (inactive)	–	42.2 µM (inactive)	–	> 100 µM (inactive)	> 100 µM (inactive)	34.8 µM (inactive)	> 100 µM (inactive)	45.3 µM (inactive)	> 100 µM (inactive)	> 100 µM (inactive)	> 100 µM (inactive)	> 100 µM (inactive)	–	33.8 µM (inactive)	39.4 µM (inactive)
